From patent EP2857388A1, “Azoles containing sulfone” (Grünenthal GmbH, priority 2013, dated 2015)

biological target: T1, human B1R (Homo sapiens, UniProt P46663); experiment: Functional assay at bradykinin receptor 1 (B1R): Ca2+ fluorescence (Fluo-4) in FLIPR/Novostar, antagonist mode; format: cell-based; conditions: test substance 10 µM; CHO K1 cells stably transfected with human B1R gene (hB1R-Zellen); agonist Lys-Des-Arg9-Bradykinin at EC80; % inhibition relative to maximal achievable inhibition; read-out: % Inhibierung (human B1R) bei 10 µM
T1 construct: expressed in transfected cells; host or cells: CHO K1 cells (Chinese Hamster Ovary), stably transfected
T1 sequence (P46663 1-353): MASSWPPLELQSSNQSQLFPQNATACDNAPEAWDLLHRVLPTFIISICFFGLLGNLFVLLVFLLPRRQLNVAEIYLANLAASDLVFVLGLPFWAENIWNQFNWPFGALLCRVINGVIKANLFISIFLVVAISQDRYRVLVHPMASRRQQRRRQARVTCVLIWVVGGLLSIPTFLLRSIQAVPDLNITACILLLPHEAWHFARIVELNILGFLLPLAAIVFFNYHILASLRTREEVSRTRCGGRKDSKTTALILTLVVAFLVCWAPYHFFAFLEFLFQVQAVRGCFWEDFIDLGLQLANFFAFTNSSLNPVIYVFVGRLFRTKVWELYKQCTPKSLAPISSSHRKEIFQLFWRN
Summary of the method: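 CHO K1 cells stably expressing human B1R were loaded with Fluo-4 and preincubated 6–20 min with test compound before Lys-Des-Arg9-bradykinin at its EC80. Peak fluorescence (ex 488/em 540 nm) gave % inhibition versus maximal inhibition; IC50 from several concentrations, n=2 or 3.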

SMILES	inhibition at 10 µM [%]
COc1cc(C)c(S(=O)(=O)Cc2noc(CC(=O)N3CCC4(CCN(C)C4)C3)n2)c(C)c1 (stereo not drawn) [CC-130, 2-[3-[[(4-Methoxy-2,6-dimethyl-phenyl)sulfonyl]-methyl]-[1,2,4]oxadiazol-5-yl]-1-(2-methyl-2,8-diazaspiro[4.4]nonan-8-yl)-ethanon]	99
COc1cc(C)c(S(=O)(=O)Cc2noc(CC(=O)N3CCC(N4CCN(C)CC4)CC3)n2)c(C)c1 [CC-131, 2-[3-[[(4-Methoxy-2,6-dimethyl-phenyl)sulfonyl]-methyl]-[1,2,4]oxadiazol-5-yl]-1-[4-(4-methyl-piperazin-1-yl)-piperidin-1-yl]-ethanon]	100
COc1cc(C)c(S(=O)(=O)Cc2noc(CC(=O)N3CCN(c4ccncc4)CC3)n2)c(C)c1 [CC-133, 2-[3-[[(4-Methoxy-2,6-dimethyl-phenyl)sulfonyl]-methyl]-[1,2,4]oxadiazol-5-yl]-1-(4-pyridin-4-yl-piperazin-1-yl)-ethanon]	100
COc1cc(C)c(S(=O)(=O)Cc2noc(CC(=O)N3CCC4(CC3)CCN(c3ccncc3)C4)n2)c(C)c1 [CC-134, 2-[3-[[(4-Methoxy-2,6-dimethyl-phenyl)sulfonyl]-methyl]-[1,2,4]oxadiazol-5-yl]-1-(3-pyridin-4-yl-3,8-diazaspiro[4.5]decan-8-yl)-ethanon]	100
COc1cc(C)c(S(=O)(=O)Cc2noc(CC(=O)N3[C@@H]4CC[C@H]3CC(Oc3ccncc3)C4)n2)c(C)c1 (stereo partly drawn) [CC-135, 2-[3-[[(4-Methoxy-2,6-dimethyl-phenyl)sulfonyl]-methyl]-[1,2,4]oxadiazol-5-yl]-1-[(1S, 5R)-3-pyridin-4-yloxy-8-azabicyclo[3.2.1]octan-8-yl]-ethanon]	98
COc1cc(C)c(S(=O)(=O)Cc2noc(C(=O)N3CCN(c4ccncc4)CC3)n2)c(C)c1 [CC-136, [3-[[(4-Methoxy-2,6-dimethyl-phenyl)sulfonyl]-methyl]-[1,2,4]oxadiazol-5-yl]-(4-pyridin-4-yl-piperazin-1-yl)-methanon]	100
Cc1cccc(Cl)c1S(=O)(=O)Cc1noc(C(=O)N2CCN(c3ccncc3)CC2)n1 [CC-137, [3-[[(2-Chlor-6-methyl-phenyl)sulfonyl]-methyl]-[1,2,4]oxadiazol-5-yl]-(4-pyridin-4-yl-piperazin-1-yl)-methanon]	99
Cc1cccc(Cl)c1S(=O)(=O)Cc1noc(C(=O)N2CCC(N3CCN(C)CC3)CC2)n1 [CC-138, [3-[[(2-Chlor-6-methyl-phenyl)sulfonyl]-methyl]-[1,2,4]oxadiazol-5-yl]-[4-(4-methyl-piperazin-1-yl)-piperidin-1-yl]-methanon]	95
COc1cc(C)c(S(=O)(=O)Cc2noc(C(=O)N3CCC4(CC3)CCN(c3ccncc3)C4)n2)c(C)c1 [CC-139, [3-[[(4-Methoxy-2,6-dimethyl-phenyl)sulfonyl]-methyl]-[1,2,4]oxadiazol-5-yl]-(3-pyridin-4-yl-3,8-diazaspiro[4.5]decan-8-yl)-methanon]	100
Cc1cc(S(=O)(=O)Cc2noc(C(=O)N3CCC(N4CCN(C)CC4)CC3)n2)c(C)cc1Cl [CC-141, [3-[[(4-Chlor-2,5-dimethyl-phenyl)sulfonyl]-methyl]-[1,2,4]oxadiazol-5-yl]-[4-(4-methyl-piperazin-1-yl)-piperidin-1-yl]-methanon]	99
Cc1cc(S(=O)(=O)Cc2noc(C(=O)N3CCC4(CCN(C)C4)C3)n2)c(C)cc1Cl (stereo not drawn) [CC-142, [3-[[(4-Chlor-2,5-dimethyl-phenyl)sulfonyl]-methyl]-[1,2,4]oxadiazol-5-yl]-(2-methyl-2,8-diaza-spiro[4.4]nonan-8-yl)-methanon]	99
Cc1cccc(Cl)c1S(=O)(=O)Cc1noc(C(=O)N2CCC3(CCN(C)C3)C2)n1 (stereo not drawn) [CC-143, [3-[[(2-Chlor-6-methyl-phenyl)sulfonyl]-methyl]-[1,2,4]oxadiazol-5-yl]-(2-methyl-2,8-diazaspiro-[4.4]nonan-8-yl)-methanon]	82
Cc1cc(S(=O)(=O)Cc2noc(C(=O)N3CCN(c4ccncc4)CC3)n2)c(C)cc1Cl [CC-144, [3-[[(4-Chlor-2,5-dimethyl-phenyl)sulfonyl]-methyl]-[1,2,4]oxadiazol-5-yl]-(4-pyridin-4-yl-piperazin-1-yl)-methanon]	100
Cc1cccc(Cl)c1S(=O)(=O)Cc1noc(C(=O)N2CCC3(CC2)CCN(c2ccncc2)C3)n1 [CC-145, [3-[[(2-Chlor-6-methyl-phenyl)sulfonyl]-methyl]-[1,2,4]oxadiazol-5-yl]-(3-pyridin-4-yl-3,8-diazaspiro[4.5]decan-8-yl)-methanon]	100
Cc1cc(S(=O)(=O)Cc2noc(C(=O)N3CCC4(CC3)CCN(c3ccncc3)CC4)n2)c(C)cc1Cl [CC-146, [3-[[(4-Chlor-2,5-dimethyl-phenyl)sulfonyl]-methyl]-[1,2,4]oxadiazol-5-yl]-(9-pyridin-4-yl-3,9-diazaspiro[5.5]undecan-3-yl)-methanon]	100
COc1cc(C)c(S(=O)(=O)Cc2noc(C(=O)N3CCC4(CCN(C)C4)C3)n2)c(C)c1 (stereo not drawn) [CC-147, [3-[[(4-Methoxy-2,6-dimethyl-phenyl)sulfonyl]-methyl]-[1,2,4]oxadiazol-5-yl]-(2-methyl-2,8-diazaspiro[4.4]nonan-8-yl)-methanon]	100
Cc1cccc(Cl)c1S(=O)(=O)Cc1noc(C(=O)N2CCC3(CC2)CCN(c2ccncc2)CC3)n1 [CC-148, [3-[[(2-Chlor-6-methyl-phenyl)sulfonyl]-methyl]-[1,2,4]oxadiazol-5-yl]-(9-pyridin-4-yl-3,9-diazaspiro[5.5]undecan-3-yl)-methanon]	100
COc1cc(C)c(S(=O)(=O)Cc2noc(C(=O)N3[C@@H]4CC[C@H]3CC(Oc3ccncc3)C4)n2)c(C)c1 (stereo partly drawn) [CC-149, [3-[[(4-Methoxy-2,6-dimethyl-phenyl)sulfonyl]-methyl]-[1,2,4]oxadiazol-5-yl]-[(1S,5R)-3-pyridin-4-yloxy-8-azabicyclo[3.2.1]octan-8-yl]-methanon]	100
Cc1cccc(Cl)c1S(=O)(=O)Cc1noc(C(=O)N2C3CCC2CC(Oc2ccncc2)C3)n1 [CC-150, [3-[[(2-Chlor-6-methyl-phenyl)sulfonyl]-methyl]-[1,2,4]oxadiazol-5-yl]-[(1S,5R)-3-pyridin-4-yloxy-8-azabicyclo[3.2.1]octan-8-yl]-methanon]	100
Cc1cc(S(=O)(=O)Cc2noc(C(=O)N3CCC4(CC3)CCN(c3ccncc3)C4)n2)c(C)cc1Cl [CC-152, [3-[[(4-Chlor-2,5-dimethyl-phenyl)sulfonyl]-methyl]-[1,2,4]oxadiazol-5-yl]-(3-pyridin-4-yl-3,8-diazaspiro[4.5]decan-8-yl)-methanon]	100
COc1cc(C)c(S(=O)(=O)Cc2noc(CC(=O)N3CCC(Cc4ccncc4)CC3(C)C)n2)c(C)c1 (stereo not drawn) [CC-153, 1-[2,2-Dimethyl-4-(pyridin-4-yl-methyl)-piperidin-1-yl]-2-[3-[[(4-methoxy-2,6-dimethyl-phenyl)-sulfonyl]-methyl]-[1,2,4]oxadiazol-5-yl]-ethanon]	92
COc1cc(C)c(S(=O)(=O)Cc2cc(C)n(CC(=O)NC3CCC(N(C)C)CC3)n2)c(C)c1 (stereo not drawn) [CC-154, N-(4-Dimethylamino-cyclohexyl)-2-[3-[[(4-methoxy-2,6-dimethyl-phenyl)sulfonyl]-methyl]-5-methyl-1 H-pyrazol-1-yl]-acetamid]	80
COc1cc(C)c(S(=O)(=O)Cc2cc(C)n(CC(=O)NC3CCC(N4CCCC4)CC3(C)C)n2)c(C)c1 (stereo not drawn) [CC-155, N-(2,2-Dimethyl-4-pyrrolidin-1-yl-cyclohexyl)-2-[3-[[(4-methoxy-2,6-dimethyl-phenyl)sulfonyl]-methyl]-5-methyl-1 H-pyrazol-1-yl]-acetamid]	98
COc1cc(C)c(S(=O)(=O)Cc2cc(C)n(CC(=O)NC3CCC(N4CCCC4)CC3)n2)c(C)c1 (stereo not drawn) [CC-156, 2-[3-[[(4-Methoxy-2,6-dimethyl-phenyl)sulfonyl]-methyl]-5-methyl-1H-pyrazol-1-yl]-N-(4-pyrrolidin-1-yl-cyclohexyl)-acetamid]	98
COCCN1CCC(NC(=O)Cn2nc(CS(=O)(=O)c3c(C)cc(OC)cc3C)cc2C)C(C)(C)C1 (stereo not drawn) [CC-157, 2-[3-[[(4-Methoxy-2,6-dimethyl-phenyl)sulfonyl]-methyl]-5-methyl-1H-pyrazol-1-yl]-N-[1-(2-methoxy-ethyl)-3,3-dimethyl-piperidin-4-yl]-acetamid]	61
COc1cc(C)c(S(=O)(=O)Cc2cn(CC(=O)NC3CCC(N4CCCC4)CC3(C)C)nn2)c(C)c1 (stereo not drawn) [CC-158, N-(2,2-Dimethyl-4-pyrrolidin-1-yl-cyclohexyl)-2-[4-[[(4-methoxy-2,6-dimethyl-phenyl)sulfonyl]-methyl]-1H-[1,2,3]triazol-1-yl]-acetamid]	100
COc1cc(C)c(S(=O)(=O)Cc2cc(C)n(CC(=O)NC3CCN(C(C)=O)CC3(C)C)n2)c(C)c1 (stereo not drawn) [CC-159, N-(1-Acetyl-3,3-dimethyl-piperidin-4-yl)-2-[3-[[(4-methoxy-2,6-dimethyl-phenyl)sulfonyl]-methyl]-5-methyl-1 H-pyrazol-1-yl]-acetamid]	50
